Measurements taken from US4416817A, “3-Methoxy-2-oxoazetidine derivatives and their production” (Takeda Chemical Industries, Ltd., priority 1979, dated 1983).

Assays:
Experiment in all cases: Antimicrobial spectrum, minimum inhibitory concentration
Assay type in all cases: cell-based
Candida albicans TA = conditions: medium TSA
Text: (§1) TSA = Trypticase soy agar [Baltimore Biologicals
(§2) BTSA = Blood trypticase soy agar

[1] = tested on: Corynebacterium diphtheriae Toronto; conditions: medium B-TSA
Text: as §1, §2

[2] = tested on: Enterobacter cloacae IFO 12937; conditions: IFO12937, medium TSA
Text: as §1, §2

[3] = tested on: Escherichia coli NIHJ JC-2; conditions: NIHJJC2, medium TSA
Text: as §1, §2

Escherichia coli O-111 = conditions: O111, medium TSA
Text: as §1, §2

Klebsiella pneumoniae DT = conditions: medium TSA
Text: as §1, §2

[4] = tested on: Proteus mirabilis IFO 3849; conditions: IFO3849, medium TSA
Text: as §1, §2

[5] = tested on: Proteus vulgaris IFO 3988; conditions: IFO3988, medium TSA
Text: as §1, §2

[6] = tested on: Pseudomonas aeruginosa U 31; conditions: U31, medium TSA
Text: as §1, §2

[7] = tested on: Pseudomonas morganii IFO 3168; conditions: IFO3168, medium TSA
Text: as §1, §2

[8] = tested on: Serratia marcescens IFO 12648; conditions: IFO12648, medium TSA
Text: as §1, §2

[9] = tested on: Staphylococcus aureus FDA209P; conditions: medium TSA (Trypticase soy agar)
Text: as §1, §2

[10] = tested on: Streptococcus pyogenes E-14; conditions: E14, medium B-TSA (Blood trypticase soy agar)
Text: as §1, §2

[11] = tested on: Streptococcus pyogenes S-8; conditions: S8, medium B-TSA
Text: as §1, §2

CCN1CCN(C(=O)N[C@@H](C(=O)NC2(OC)CN(S(=O)(=O)O)C2=O)c2ccccc2)C(=O)C1=O (single isomer, unassigned) [Compound, sodium 3-[D(-)-2-(4-ethyl-2,3-dioxo-1-piperazinocarboxamido)phenylacetamido]-3-methoxy-2-oxoazetidine-1-sulfonate]
MIC (Candida albicans TA): > 100 µg/mL | MIC [1]: 50 µg/mL | MIC [2]: > 100 µg/mL | MIC [3]: 50 µg/mL | MIC (Escherichia coli O-111): 12.5 µg/mL | MIC (Klebsiella pneumoniae DT): 12.5 µg/mL | MIC [4]: 50 µg/mL | MIC [5]: 12.5 µg/mL | MIC [6]: > 100 µg/mL | MIC [7]: > 100 µg/mL | MIC [8]: 50 µg/mL | MIC [9]: 100 µg/mL | MIC [10]: 50 µg/mL | MIC [11]: 50 µg/mL
